Results: publication PMC13422867, “An orally available PfPKG inhibitor blocks Plasmodium’s infection of the liver” (PLOS Pathogens, 2026)
“And” between values parts separate entries of the source, which are not always exact repeats. Equal values may be shown once. Each block holds one molecule with its values, some of them ahead of it.

How the values were obtained:
[1] = tested on: primary simian hepatocytes; test: Cellular cytotoxicity, hepatocyte nuclear counts; assay type: cell-based
Source text: (§1) Primary cryopreserved hepatocytes were selected based on host-parasite compatibility: primary simian hepatocytes (lot OQB) for P. cynomolgi and human hepatocytes (lot BGW) for P. falciparum (BioIVT Inc., Baltimore, MD, USA). Cells were thawed according to the manufacturer’s protocol and seeded into 384-well collagen-coated assay plates (Greiner Bio-One, Monroe, NC, USA) using InVitroGro CP plating medium (BioIVT). Seeding densities were optimized for uniform monolayer formation, and hepatocytes were allowed to adhere for 24–48 hours before infection. Sporozoites were added at a 1:1.1 hepatocyte-to-sporozoite ratio within 48 hours post-seeding. Automated robotic systems were used for media changes and compound additions to ensure assay consistency and minimize variability associated with manual pipetting.
(§2) Test compounds (PfPKG inhibitors) and assay drug controls (KDU-691 and tafenoquine) were solubilized in DMSO or PBS and serially diluted into 8- or 12-point, 2- or 3-fold series, achieving final assay concentrations ranging from 20 µM to 0.019 µM. Compounds were introduced using a calibrated pin tool controlled by robotic arms (V&P Scientific), ensuring a 1:1000 dilution into assay wells. Media were replenished daily with fresh drug-containing HCM. Compounds were added 1-hour post-infection (p.i.) (day 0) and administered daily for 3 days. Cells were fixed on day 6 p.i. of P. falciparum culture and day 8 for P. cynomolgi infected culture, coinciding with liver stage schizont maturation.
(§3) High-content imaging was performed using the Operetta CLS system (Revvity) and image analysis was performed with Harmony software version 4.9 (Revvity, Waltham, MA, USA). Images were acquired at 10x or 20x magnification using DAPI and TRITC fluorescence channels. Following the established protocol, parasites were classified as hypnozoites or schizonts based on fluorescence intensity (mean and maximum), morphological features (cell roundness and size), and segmentation criteria. Hepatocyte nuclei were identified using Hoechst 33342 staining. Background signal was captured in uninfected, stained wells and subjected to the same parasite detection algorithm. Estimate erroneous parasite counts were then subtracted from infected well counts. Hepatocyte viability was determined by quantifying nuclear counts per well using Hoechst stain intensity thresholds. […] An in-house built Python-based image analysis script identified parasite objects using predefined fluorescence intensity thresholds. […] Parasite size was quantified by calculating the average object area (µm²) of validated parasite structures per well. […] Dose-response inhibition and IC50 were calculated relative to in-plate negative controls (DMSO-treated wells). […]

[2] = tested on: P. falciparum sporozoites; test: Sporozoite infection of primary human hepatocytes, high-content imaging; assay type: cell-based, Plasmodium falciparum
Protocol: Liver stage antimalarial activity was evaluated using sporozoites from P. falciparum (NF54 strain) and P. cynomolgi bastianellii (B strain). P. falciparum-infected Anopheles stephensi mosquitoes were reared at WRAIR, while P. cynomolgi-infected Anopheles dirus mosquitoes were obtained from the Armed Forces Research Institute of Medical Sciences (AFRIMS), Thailand. Sporozoites were isolated by dissecting salivary glands under sterile conditions, followed by gentle mechanical disruption. Freshly isolated sporozoites were immediately used for hepatocyte infection. […]
(§4) Cells were fixed using 4% paraformaldehyde for 20 minutes at room temperature, followed by three PBS washes, and stored at 4°C until further processing. Parasite detection was performed using species-specific primary antibodies, with P. cynomolgi parasites labeled using a mouse monoclonal anti-Plasmodium GAPDH antibody (1.6 μg/mL, European Malaria Reagent Repository) and P. falciparum parasites detected using a rabbit polyclonal anti-PfHSP70 antibody (1:70 dilution, LS Bio, USA). […]
(§5) High-content imaging was performed using the Operetta CLS system (Revvity) and image analysis was performed with Harmony software version 4.9 (Revvity, Waltham, MA, USA). Images were acquired at 10x or 20x magnification using DAPI and TRITC fluorescence channels. […]

[3] = tested on: primary human hepatocytes; test: Cellular cytotoxicity, hepatocyte nuclear counts; assay type: cell-based; settings: cellular cytotoxicity
Source text: as §1
Test compounds (PfPKG inhibitors) and assay drug controls (KDU-691 and tafenoquine) were solubilized in DMSO or PBS and serially diluted into 8- or 12-point, 2- or 3-fold series, achieving final assay concentrations ranging from 20 µM to 0.019 µM. […]
as §3, with “Hepatocyte nuclei were identified using Hoechst 33342 staining. Background signal was captured in uninfected, stained wells and subjected to the same parasite detection algorithm. Estimate erroneous parasite counts were then subtracted from infected well counts.” left out

P. cynomolgi schizont = test: Schizont formation in primary simian hepatocytes, high-content imaging; assay type: cell-based, Plasmodium cynomolgi
Protocol: (§6) Liver stage antimalarial activity was evaluated using sporozoites from P. falciparum (NF54 strain) and P. cynomolgi bastianellii (B strain). P. falciparum-infected Anopheles stephensi mosquitoes were reared at WRAIR, while P. cynomolgi-infected Anopheles dirus mosquitoes were obtained from the Armed Forces Research Institute of Medical Sciences (AFRIMS), Thailand. Sporozoites were isolated by dissecting salivary glands under sterile conditions, followed by gentle mechanical disruption. Freshly isolated sporozoites were immediately used for hepatocyte infection.
as §1
as §2, with “Compounds were added 1-hour post-infection (p.i.) (day 0) and administered daily for 3 days. Cells were fixed on day 6 p.i. of P. falciparum culture and day 8 for P. cynomolgi infected culture, coinciding with liver stage schizont maturation.” left out
as §4
as §5, with “channels. Following the established protocol, parasites were classified as hypnozoites or schizonts based on fluorescence intensity (mean and maximum), morphological features (cell roundness and size), and segmentation criteria.” for “channels.”

P. cynomolgi hypnozoite = test: Hypnozoite formation in primary simian hepatocytes, high-content imaging; assay type: cell-based, Plasmodium cynomolgi
Protocol: as §6, §1
as §2, with “Compounds were added 1-hour post-infection (p.i.) (day 0) and administered daily for 3 days. Cells were fixed on day 6 p.i. of P. falciparum culture and day 8 for P. cynomolgi infected culture, coinciding with liver stage schizont maturation.” left out
as §4
as §5, with “channels. Following the established protocol, parasites were classified as hypnozoites or schizonts based on fluorescence intensity (mean and maximum), morphological features (cell roundness and size), and segmentation criteria.” for “channels.”

[4] = tested on: P. berghei sporozoites (PbLuc-GFP); test: In vivo chemoprotective efficacy against sporozoite liver infection; design: species or system Plasmodium berghei in mice; settings: Intravenous, 10 mg/kg x 3
[5] = tested on: P. berghei sporozoites (PbLuc-GFP); test: as above; design: species or system Plasmodium berghei in mice
Protocol: In the first experiment, mice were administered three doses, intravenously (IV) or orally (PO), of compound (10 mg/kg) - two prior to sporozoite inoculation to block sporozoite invasion of hepatocytes and the third at 36 hpi to prevent egress of liver stages (Fig 3A). In vivo bioluminescent imaging (IVIS) of mice was utilized to detect and quantify relative parasitemia in the liver and flow cytometry was used to detect the appearance of blood stage parasites. Vehicle-treated mice were used as a negative control.
In vivo chemoprotective efficacy was evaluated using luciferase-expressing P. berghei ANKA sporozoites. […] Liver stage parasite burden was measured 42–48 h p.i. by bioluminescence imaging (IVIS Spectrum). Photon flux from the liver region was quantified using Living Image software. All animal procedures were approved by the Rutgers Institutional Animal Care and Use Committee (IACUC).

CIT = biological target: T1, CIT (Homo sapiens, UniProt O14578); test: KdElect binding affinity assay; settings: for Kd for CIT higher compared to RUPB-61: range over RUPB-18, -34, -69; for Kd: read-out: CIT Experimental Kd
T1 construct: purchased Eurofins (DiscoverX)
T1 sequence (O14578 whole entry): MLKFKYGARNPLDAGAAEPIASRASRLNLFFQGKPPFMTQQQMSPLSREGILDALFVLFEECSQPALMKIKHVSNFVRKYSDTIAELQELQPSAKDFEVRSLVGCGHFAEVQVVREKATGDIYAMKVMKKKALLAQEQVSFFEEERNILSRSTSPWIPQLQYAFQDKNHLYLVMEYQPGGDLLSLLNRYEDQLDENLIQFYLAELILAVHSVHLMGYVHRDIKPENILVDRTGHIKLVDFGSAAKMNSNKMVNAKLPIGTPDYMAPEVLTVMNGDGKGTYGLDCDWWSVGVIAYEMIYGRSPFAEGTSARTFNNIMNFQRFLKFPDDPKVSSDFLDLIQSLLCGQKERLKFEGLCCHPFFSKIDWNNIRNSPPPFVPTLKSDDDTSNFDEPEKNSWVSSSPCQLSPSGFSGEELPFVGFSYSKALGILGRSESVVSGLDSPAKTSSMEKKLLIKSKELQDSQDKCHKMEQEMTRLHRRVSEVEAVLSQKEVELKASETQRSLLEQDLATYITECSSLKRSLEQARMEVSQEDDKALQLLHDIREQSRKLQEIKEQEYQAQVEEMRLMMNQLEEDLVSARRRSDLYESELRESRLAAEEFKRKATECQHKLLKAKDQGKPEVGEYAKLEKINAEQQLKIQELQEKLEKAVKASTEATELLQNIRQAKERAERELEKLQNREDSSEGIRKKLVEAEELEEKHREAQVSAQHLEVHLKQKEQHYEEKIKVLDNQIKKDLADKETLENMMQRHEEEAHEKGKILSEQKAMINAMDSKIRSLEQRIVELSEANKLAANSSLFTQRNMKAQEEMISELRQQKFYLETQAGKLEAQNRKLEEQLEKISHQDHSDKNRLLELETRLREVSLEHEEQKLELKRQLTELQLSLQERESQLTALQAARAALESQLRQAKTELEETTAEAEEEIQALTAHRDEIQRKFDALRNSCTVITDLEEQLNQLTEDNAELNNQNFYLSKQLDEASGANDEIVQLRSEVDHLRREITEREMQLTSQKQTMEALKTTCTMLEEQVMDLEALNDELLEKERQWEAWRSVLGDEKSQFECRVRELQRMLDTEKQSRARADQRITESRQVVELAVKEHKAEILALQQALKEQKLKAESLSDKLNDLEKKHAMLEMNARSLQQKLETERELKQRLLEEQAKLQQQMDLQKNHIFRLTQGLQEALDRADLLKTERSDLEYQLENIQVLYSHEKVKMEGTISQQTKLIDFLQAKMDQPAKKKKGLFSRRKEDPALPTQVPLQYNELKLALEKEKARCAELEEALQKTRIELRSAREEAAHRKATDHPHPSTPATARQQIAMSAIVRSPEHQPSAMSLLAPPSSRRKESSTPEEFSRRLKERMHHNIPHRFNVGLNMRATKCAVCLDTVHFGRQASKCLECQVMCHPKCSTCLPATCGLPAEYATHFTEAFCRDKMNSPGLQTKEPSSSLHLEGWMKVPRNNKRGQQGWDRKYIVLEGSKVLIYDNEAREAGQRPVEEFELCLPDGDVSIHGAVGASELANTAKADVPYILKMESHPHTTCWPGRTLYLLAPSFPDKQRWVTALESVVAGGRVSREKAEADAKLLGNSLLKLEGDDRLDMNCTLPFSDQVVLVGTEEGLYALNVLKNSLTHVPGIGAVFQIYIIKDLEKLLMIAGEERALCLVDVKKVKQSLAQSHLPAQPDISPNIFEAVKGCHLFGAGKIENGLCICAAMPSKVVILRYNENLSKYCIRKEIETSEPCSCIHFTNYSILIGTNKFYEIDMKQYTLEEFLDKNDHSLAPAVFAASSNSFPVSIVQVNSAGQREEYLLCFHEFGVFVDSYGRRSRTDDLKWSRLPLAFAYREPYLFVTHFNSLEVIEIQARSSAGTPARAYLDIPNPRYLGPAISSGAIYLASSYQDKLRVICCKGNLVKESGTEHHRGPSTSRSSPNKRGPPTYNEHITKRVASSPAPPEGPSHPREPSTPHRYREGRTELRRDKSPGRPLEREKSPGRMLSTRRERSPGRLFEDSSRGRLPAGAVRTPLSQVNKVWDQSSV
Protocol: (§7) Off-target kinase inhibition was assessed using the DiscoverX scanMAX (Eurofins) panel at 1 µM compound concentration. Binding affinities of CIT, ROCK1 and ROCK2 were evaluated using the KdElect assay (Eurofins).

ROCK2 = biological target: T2, ROCK2 (Homo sapiens, UniProt O75116); test: KdElect binding affinity assay; settings: for Kd for ROCK2 higher compared to RUPB-61: range over RUPB-8, -18, -34 and over ROCK1 and ROCK2; for Kd: read-out: ROCK2 Experimental Kd
T2 construct: purchased Eurofins (DiscoverX)
T2 sequence (O75116 whole entry): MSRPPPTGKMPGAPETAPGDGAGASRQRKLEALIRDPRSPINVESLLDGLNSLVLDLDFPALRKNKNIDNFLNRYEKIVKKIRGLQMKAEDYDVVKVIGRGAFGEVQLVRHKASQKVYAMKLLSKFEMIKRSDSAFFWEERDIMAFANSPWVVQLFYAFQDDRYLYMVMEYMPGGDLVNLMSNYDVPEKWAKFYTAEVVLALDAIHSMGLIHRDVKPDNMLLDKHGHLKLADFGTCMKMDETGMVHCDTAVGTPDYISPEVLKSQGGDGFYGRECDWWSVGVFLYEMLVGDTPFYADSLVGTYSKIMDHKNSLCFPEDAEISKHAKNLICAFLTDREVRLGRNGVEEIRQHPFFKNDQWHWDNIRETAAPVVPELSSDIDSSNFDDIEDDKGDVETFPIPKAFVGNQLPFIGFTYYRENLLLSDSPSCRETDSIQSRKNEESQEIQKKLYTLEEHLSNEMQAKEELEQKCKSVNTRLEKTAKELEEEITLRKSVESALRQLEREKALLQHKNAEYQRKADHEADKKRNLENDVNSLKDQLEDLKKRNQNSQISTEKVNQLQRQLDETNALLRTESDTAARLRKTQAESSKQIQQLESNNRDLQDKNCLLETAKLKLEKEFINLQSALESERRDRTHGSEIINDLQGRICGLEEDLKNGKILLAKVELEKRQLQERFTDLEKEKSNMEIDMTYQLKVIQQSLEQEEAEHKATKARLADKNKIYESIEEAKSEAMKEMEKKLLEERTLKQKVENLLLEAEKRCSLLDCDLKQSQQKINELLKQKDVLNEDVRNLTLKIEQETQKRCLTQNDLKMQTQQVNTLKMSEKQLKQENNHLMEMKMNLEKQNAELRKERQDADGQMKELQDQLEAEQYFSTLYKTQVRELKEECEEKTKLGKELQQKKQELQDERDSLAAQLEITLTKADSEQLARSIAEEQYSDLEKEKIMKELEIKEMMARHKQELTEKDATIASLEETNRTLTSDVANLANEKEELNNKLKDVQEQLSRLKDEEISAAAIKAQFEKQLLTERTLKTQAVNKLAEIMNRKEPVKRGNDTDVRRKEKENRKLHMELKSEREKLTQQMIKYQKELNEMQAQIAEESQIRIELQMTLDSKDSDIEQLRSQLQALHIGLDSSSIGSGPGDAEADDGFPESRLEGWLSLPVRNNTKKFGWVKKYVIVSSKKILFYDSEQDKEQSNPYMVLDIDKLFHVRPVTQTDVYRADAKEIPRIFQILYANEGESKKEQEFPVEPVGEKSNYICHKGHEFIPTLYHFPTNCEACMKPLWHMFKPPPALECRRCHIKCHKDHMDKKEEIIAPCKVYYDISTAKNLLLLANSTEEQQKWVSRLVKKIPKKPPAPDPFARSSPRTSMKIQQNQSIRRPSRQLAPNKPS
Protocol: as §7

ROCK1 = biological target: T3, ROCK1 (Homo sapiens, UniProt Q13464); test: KdElect binding affinity assay; settings: for Kd for ROCK1 higher compared to RUPB-61: range over RUPB-8, -18, -34 and over ROCK1 and ROCK2; for Kd: read-out: ROCK1 Experimental Kd; for ROCK1 Experimental Binding (ΔG): ∆G = -RTln(Kd), 300K
T3 construct: purchased Eurofins (DiscoverX)
T3 sequence (Q13464 whole entry): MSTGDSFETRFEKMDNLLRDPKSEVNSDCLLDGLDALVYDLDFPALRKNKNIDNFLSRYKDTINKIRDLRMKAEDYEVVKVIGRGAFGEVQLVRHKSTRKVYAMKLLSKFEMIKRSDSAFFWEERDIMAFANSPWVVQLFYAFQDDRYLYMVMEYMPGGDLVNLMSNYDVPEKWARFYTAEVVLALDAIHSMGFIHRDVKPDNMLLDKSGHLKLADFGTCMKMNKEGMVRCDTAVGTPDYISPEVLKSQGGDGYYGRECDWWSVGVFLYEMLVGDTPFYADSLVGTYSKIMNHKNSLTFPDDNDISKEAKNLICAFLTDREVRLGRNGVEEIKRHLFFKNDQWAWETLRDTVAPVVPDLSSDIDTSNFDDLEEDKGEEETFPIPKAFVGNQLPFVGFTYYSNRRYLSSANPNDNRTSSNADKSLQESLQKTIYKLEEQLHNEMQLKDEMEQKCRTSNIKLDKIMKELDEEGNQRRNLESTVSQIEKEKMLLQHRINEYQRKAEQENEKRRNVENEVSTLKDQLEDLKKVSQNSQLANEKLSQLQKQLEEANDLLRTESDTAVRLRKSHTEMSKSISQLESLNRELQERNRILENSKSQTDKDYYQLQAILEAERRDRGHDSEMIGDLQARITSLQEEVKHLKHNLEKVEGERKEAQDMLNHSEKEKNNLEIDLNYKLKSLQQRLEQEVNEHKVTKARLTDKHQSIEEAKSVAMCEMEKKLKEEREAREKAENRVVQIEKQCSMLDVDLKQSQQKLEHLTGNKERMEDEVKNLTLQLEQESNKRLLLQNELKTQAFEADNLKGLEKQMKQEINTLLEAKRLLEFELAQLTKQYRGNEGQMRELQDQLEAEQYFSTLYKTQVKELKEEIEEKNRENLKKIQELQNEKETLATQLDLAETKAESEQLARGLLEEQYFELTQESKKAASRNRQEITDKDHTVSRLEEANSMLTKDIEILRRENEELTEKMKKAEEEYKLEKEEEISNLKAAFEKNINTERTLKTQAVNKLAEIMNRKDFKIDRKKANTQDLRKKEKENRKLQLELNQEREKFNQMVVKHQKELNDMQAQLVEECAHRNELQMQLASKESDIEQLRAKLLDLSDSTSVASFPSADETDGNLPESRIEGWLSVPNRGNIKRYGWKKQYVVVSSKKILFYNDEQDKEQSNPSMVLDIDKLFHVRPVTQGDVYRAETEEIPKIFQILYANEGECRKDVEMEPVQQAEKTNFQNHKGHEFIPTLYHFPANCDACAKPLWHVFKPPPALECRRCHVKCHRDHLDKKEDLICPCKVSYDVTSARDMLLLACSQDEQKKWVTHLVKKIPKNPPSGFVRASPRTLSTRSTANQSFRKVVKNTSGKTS
Protocol: as §7

PfPKG = settings: cited from earlier work
[6] = tested on: P. falciparum CamWT and CamC580Y; settings: ring-stage assays; cited from earlier work
P. falciparum 7G8 = test: Asexual blood stage growth inhibition, SYBR Green I, 72 h; assay type: cell-based; settings: Plasmodium falciparum, mean (standard error) of 3 biological replicates
Protocol: (§8) Asexual blood stage P. falciparum strains, including 3D7 and drug-resistant field isolates, were cultured using standard conditions in RPMI 1640 with 0.5% Albumax as described previously. EC₅₀ values were determined using a SYBR Green I fluorescence assay after 72 h of compound exposure. EC50 values were derived by nonlinear regression in GraphPad Prism version 10.

P. falciparum K1 = test: as above; assay type: cell-based; settings: Plasmodium falciparum, mean (standard error) of 3 biological replicates
Protocol: as §8

P. falciparum 3D7 = test: as above; assay type: cell-based; settings: Plasmodium falciparum, mean (standard error) of 3 biological replicates
Protocol: as §8

P. falciparum TM90_C2B = test: as above; assay type: cell-based; settings: Plasmodium falciparum, mean (standard error) of 3 biological replicates
Protocol: as §8

P. falciparum Dd2-B2 = test: as above; assay type: cell-based; settings: Plasmodium falciparum, mean (standard error) of 3 biological replicates
Protocol: as §8

SMILES: CNC(=O)c1ccc(-c2cnc3cnc(C(=O)N(C)c4ccc(Cl)cc4)cn23)cc1 [KDU-691]
CC50 [1]: > 10000 nM
IC50 [2]: 51 nM
CC50 [3]: > 10000 nM
IC50 (P. cynomolgi schizont): 42 nM
IC50 (P. cynomolgi hypnozoite): 110 nM

SMILES: CN1CCC(c2cc(-c3ccncc3)c(-c3ccc(F)cc3)[nH]2)CC1 [TSP, reference compound]
CC50 [1]: 8500 nM
No. of mice patent by D21/ No. of mice inoculated [4]: 3/5
IC50 (P. cynomolgi schizont): 320 nM
IC50 (P. cynomolgi hypnozoite): 400 nM
mice that did not show blood stage parasites for 3 weeks pi ([5]; 3 intravenous doses, 10 mg/kg): 2/5
mice displaying liver infection at 44 hpi ([5]; IV, 10 mg/kg x 3, bioluminescent imaging): 3/5
Prepatent period mean ± sd ([5]; Intravenous, 10 mg/kg x 3, blood stages by flow cytometry, 10 mg/kg): 4.3 days and 4.3 ± 1.1 days

Kd for CIT higher compared to RUPB-61 (CIT): 5–125 fold
Kd (CIT): 620 nM
Kd for ROCK2 higher compared to RUPB-61 (ROCK2): 40–700 fold
Kd (ROCK2): 6400 nM
Kd for ROCK1 higher compared to RUPB-61 (ROCK1): 40–700 fold
Kd (ROCK1): 9200 nM
ROCK1 Experimental Binding (ΔG) (ROCK1): -6.9 kcal/mol
SMILES: COc1ccc(-c2[nH]c(C3CCN(C)CC3)cc2-c2ccncc2)cc1 [RUPB-34]

SMILES: C[C@@H]1CN(C)CC[C@H]1c1cc(-c2ccncc2)c(-c2ccc(F)cc2)[nH]1.Cl.Cl [RUPB-60, 4-{5-[(3S,4R)-1,3-Dimethylpiperidin-4-yl]-2-(4-fluorophenyl)-1H-pyrrol-3-yl}pyridine Dihydrochloride]
IC50 against PfPKG variants, RUPB-60 compared with RUPB-61 (PfPKG): similar
IC50 against DHA-sensitive CamWT compared with DHA-resistant CamC580Y [6]: similar
IC50 (P. falciparum 7G8): 28 nM
IC50 (P. falciparum K1): 81 nM
IC50 (P. falciparum 3D7): 50 nM
IC50 (P. falciparum TM90_C2B): 80 nM
IC50 (P. falciparum Dd2-B2): 144 nM

Kd (CIT): 12 nM
Kd for ROCK2 higher compared to RUPB-61 (ROCK2): 40–700 fold
Kd (ROCK2): 1100 nM
Kd for ROCK1 higher compared to RUPB-61 (ROCK1): 40–700 fold
Kd (ROCK1): 780 nM
ROCK1 Experimental Binding (ΔG) (ROCK1): -8.4 kcal/mol
SMILES: CN1CCC(c2cc(-c3ccncc3C#N)c(-c3ccc(F)cc3)[nH]2)CC1 [RUPB-8]

Kd for CIT higher compared to RUPB-61 (CIT): 5–125 fold
Kd (CIT): 25 nM
Kd for ROCK2 higher compared to RUPB-61 (ROCK2): 40–700 fold
Kd (ROCK2): 560 nM
Kd for ROCK1 higher compared to RUPB-61 (ROCK1): 40–700 fold
Kd (ROCK1): 700 nM
ROCK1 Experimental Binding (ΔG) (ROCK1): -8.4 kcal/mol
SMILES: CN1CCC(c2[nH]c(-c3ccc(F)cc3)c(-c3ccncc3)c2C#N)CC1 [RUPB-18]

SMILES: C[C@H]1CN(C)CC[C@@H]1c1cc(-c2ccncc2)c(-c2ccc(F)cc2)[nH]1.Cl.Cl [RUPB-59, 4-{5-[(3R,4S)-1,3-Dimethylpiperidin-4-yl]-2-(4-fluorophenyl)-1H-pyrrol-3-yl}pyridine Dihydrochloride]
IC50 against DHA-sensitive CamWT compared with DHA-resistant CamC580Y [6]: similar
IC50 (P. falciparum 7G8): 135 nM
IC50 (P. falciparum K1): 148 nM
IC50 (P. falciparum 3D7): 80 nM
IC50 (P. falciparum TM90_C2B): 120 nM
IC50 (P. falciparum Dd2-B2): 353 nM
